# According to patent US20150105252A1, “SUBSTITUTED PYRAZOLES AS HERBICIDES” (E I DU PONT DE NEMOURS AND COMPANY, priority 2013, published 2015):
# Experiments:
# blackgrass = experiment: Test D preemergence; type: in vivo, Alopecurus myosuroides; settings: scale 0 to 100
# Description: (§1) Seeds of plant species selected from bluegrass (annual bluegrass, Poa annua), blackgrass (Alopecurus myosuroides), canarygrass (littleseed canarygrass, Phalaris minor), chickweed (common chickweed, Stellaria media), galium (catchweed bedstraw, Galium aparine), bromegrass, downy (downy bromegrass, Bromus tectorum), field poppy (Papaver rhoeas), field violet (Viola arvensis), foxtail, green (green foxtail, Setaria viridis), deadnettle (henbit deadnettle, Lamium amplexicaule), ryegrass, Italian (Italian ryegrass, Lolium multiflorum), kochia (Kochia scoparia), lambsquarters (Chenopodium album), oilseed rape (Brassica napus), pigweed (redroot pigweed, Amaranthus retroflexus), chamomile (scentless chamomile, Matricaria inodora), speedwell (bird's-eye speedwell, Veronica persica), barley, spring (spring barley, Hordeum vulgare), wheat, spring (spring wheat, Triticum aestivum), buckwheat, wild (wild buckwheat, Polygonum convolvulus), mustard, wild (wild mustard, Sinapis arvensis), oat, wild (wild oat, Avena fatua), radish, wild (wild radish, Raphanus raphanistrum), windgrass (Apera spica-venti), Russian thistle (Salsola kali), barley, winter (winter barley, Hordeum vulgare), and wheat, winter (winter wheat, Triticum aestivum) were planted into a silt loam soil and treated preemergence with test chemicals formulated in a non-phytotoxic solvent mixture which included a surfactant.
# (§2) At the same time, these species were planted in pots containing Redi-Earth® planting medium (Scotts Company, 14111 Scottslawn Road, Marysville, Ohio 43041) comprising spaghnum peat moss, vermiculite, wetting agent and starter nutrients and treated with postemergence applications of the test chemicals formulated in the same manner. Plants ranged in height from 2 to 18 cm (1- to 4-leaf stage). Treated plants and controls were maintained in a controlled growth environment for 14 to 21 days after which time all species were compared to controls and visually evaluated. Plant response ratings, summarized in Table D, are based on a scale of 0 to 100 where 0 is no effect and 100 is complete control. A dash (-) response means no test result.
# chickweed = experiment: Test D preemergence; type: in vivo, Stellaria media; settings: scale 0 to 100
# Method in brief: (§3)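 Visual 0-100 rating (100 = complete control) against untreated plants, made 14 to 21 days after treatment in a controlled environment. Compounds, formulated with surfactant in non-phytotoxic solvent, were applied either to seeds just sown in silt loam or to 1- to 4-leaf plants (2 to 18 cm) grown in peat-based medium.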
# field poppy = experiment: Test D preemergence; type: in vivo, Papaver rhoeas; settings: scale 0 to 100
# Description: as §1, §2
# field violet = experiment: Test D preemergence; type: in vivo, Viola arvensis; settings: scale 0 to 100
# Description: as §1, §2
# wheat, spring = experiment: Test D preemergence; type: in vivo, Triticum aestivum; settings: scale 0 to 100
# Method in brief: as §3
# wheat, winter = experiment: Test D preemergence; type: in vivo, Triticum aestivum; settings: scale 0 to 100
# Method in brief: as §3
# windgrass [1] = experiment: Test D preemergence; type: in vivo, Apera spica-venti; settings: scale 0 to 100
# Method in brief: as §3
# galium = experiment: Test D postemergence; type: in vivo, Galium aparine; settings: scale 0 to 100
# Method in brief: as §3
# buckwheat, wild = experiment: Test D postemergence; type: in vivo, Polygonum convolvulus; settings: scale 0 to 100
# Method in brief: as §3
# windgrass [2] = experiment: Test D postemergence; type: in vivo, Apera spica-venti; settings: scale 0 to 100
# Method in brief: as §3
# soybean = experiment: Test F preemergence; type: in vivo, Glycine max
# Method in brief: (§4)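 Planting in silt loam, then preemergence treatment; postemergence treatment in parallel on 1- to 4-leaf seedlings (2–18 cm). Compound carried in a non-phytotoxic solvent mixture with surfactant. Greenhouse, 14–21 days; visual comparison with controls, scored 0 (none) to 100 (full control).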
# goosegrass = experiment: Test F preemergence; type: in vivo, Eleusine indica
# Description: (§5) Seeds of plant species selected from corn (Zea mays), soybean (Glycine max), velvetleaf (Abutilon theophrasti), lambsquarters (Chenopodium album), wild poinsettia (Euphorbia heterophylla), pigweed, palmer (palmer pigweed, Amaranthus palmeri), common waterhemp (Amaranthus rudis), surinam grass (Brachiaria decumbens), large crabgrass (Digitaria sanguinalis), crabgrass, Brazil (Brazilian crabgrass, Digitaria horizontalis), fall panicum (Panicum dichotomiflorum), giant foxtail (Setaria faberii), green foxtail (Setaria viridis), goosegrass (Eleusine indica), johnsongrass (Sorghum halepense), common ragweed (Ambrosia elation), barnyardgrass (Echinochloa crus-galli), southern sandbur (Cenchrus echinatus), arrowleaf sida (Sida rhombifolia), Italian ryegrass (Lolium multiflorum), dayflower, VA (Virginia (VA) dayflower, Commelina virginica), field bindweed (Convolvulus arvensis), cocklebur (common cocklebur, Xanthium strumarium), morningglory (Ipomoea coccinea), nightshade (eastern black nightshade, Solanum ptycanthum), kochia (Kochia scoparia), yellow nutsedge (Cyperus esculentus), and hairy beggarticks (Bidens pilosa), were planted into a silt loam soil and treated preemergence with test chemicals formulated in a non-phytotoxic solvent mixture which included a surfactant.
# (§6) At the same time, plants from these crop and weed species and also horseweed (Canada horseweed, Conyza canadensis), smartweed (ladysthumb smartweed, Polygonum persicaria), waterhemp_RES1, (ALS & Triazine resistant common waterhemp, Amaranthus rudis), and waterhemp_RES2, (ALS & HPPD resistant common waterhemp, Amaranthus rudis) were treated with postemergence applications of test chemicals formulated in the same manner. Plants ranged in height from 2 to 18 cm for postemergence treatments (1- to 4-leaf stage). Treated plants and controls were maintained in a greenhouse for 14 to 21 days, after which time all species were compared to controls and visually evaluated. Plant response ratings, summarized in Table F, are based on a scale of 0 to 100 where 0 is no effect and 100 is complete control. A dash (-) response means no test result.
# barnyardgrass = experiment: Test F preemergence; type: in vivo, Echinochloa crus-galli
# Method in brief: as §4
# dayflower, VA = experiment: Test F preemergence; type: in vivo, Commelina virginica
# Description: as §5, §6
# [3] = Preemergence, 31 g ai/ha, scale 0 to 100
# [4] = Preemergence, 62 g ai/ha, scale 0 to 100
# [5] = Preemergence, 125 g ai/ha, scale 0 to 100
# [6] = preemergence, 8 g ai/ha, scale 0 to 100, 100 is complete control
# [7] = preemergence, 16 g ai/ha, scale 0 to 100, 100 is complete control
smiles,measurement,setting,value
"CCc1cc(C(=O)NCC(F)(F)F)nn1Cc1ccnc(C(F)(F)F)c1 [Compound 78, 5-ethyl-N-(2,2,2-trifluoroethyl)-1-[[(2-trifluoromethyl)-4-pyridinyl]methyl]-1H-pyrazole-3-carboxamide]","Plant response rating, Blackgrass",blackgrass; 31 g ai/ha,35
same,"Plant response rating, Blackgrass",blackgrass; 62 g ai/ha,70
same,"Plant response rating, Blackgrass",blackgrass; 125 g ai/ha,80
same,"Plant response rating, Blackgrass",blackgrass; 250 g ai/ha,100
same,"Plant response rating, Chickweed",chickweed; 31 g ai/ha,100
same,"Plant response rating, Chickweed",chickweed; 62 g ai/ha,100
same,"Plant response rating, Chickweed",chickweed; 125 g ai/ha,100
same,"Plant response rating, Chickweed",chickweed; 250 g ai/ha,100
same,"Plant response rating, Field Poppy",field poppy; 31 g ai/ha,100
same,"Plant response rating, Field Poppy",field poppy; 62 g ai/ha,100
same,"Plant response rating, Field Poppy",field poppy; 125 g ai/ha,100
same,"Plant response rating, Field Poppy",field poppy; 250 g ai/ha,100
same,"Plant response rating, Field Violet",field violet; 31 g ai/ha,100
same,"Plant response rating, Field Violet",field violet; 62 g ai/ha,100
same,"Plant response rating, Field Violet",field violet; 125 g ai/ha,100
same,"Plant response rating, Field Violet",field violet; 250 g ai/ha,100
same,"Plant response rating, Wheat, Spring","wheat, spring; 31 g ai/ha",5
same,"Plant response rating, Wheat, Spring","wheat, spring; 62 g ai/ha",55
same,"Plant response rating, Wheat, Spring","wheat, spring; 125 g ai/ha",80
same,"Plant response rating, Wheat, Spring","wheat, spring; 250 g ai/ha",100
same,"Plant response rating, Wheat, Winter","wheat, winter; 31 g ai/ha",15
same,"Plant response rating, Wheat, Winter","wheat, winter; 62 g ai/ha",50
same,"Plant response rating, Wheat, Winter","wheat, winter; 125 g ai/ha",80
same,"Plant response rating, Wheat, Winter","wheat, winter; 250 g ai/ha",95
same,"Plant response rating, Windgrass",windgrass [1]; 31 g ai/ha,90
same,"Plant response rating, Windgrass",windgrass [1]; 62 g ai/ha,100
same,"Plant response rating, Windgrass",windgrass [1]; 125 g ai/ha,100
same,"Plant response rating, Windgrass",windgrass [1]; 250 g ai/ha,100
same,Galium plant response rating,"galium; Postemergence, 31 g ai/ha",60
same,Galium plant response rating,"galium; Postemergence, 125 g ai/ha",80
same,Galium plant response rating,"galium; Postemergence, 250 g ai/ha",85
same,Galium plant response rating,"galium; postemergence, 62 g ai/ha",70
same,"Buckwheat, Wild plant response rating","buckwheat, wild; Postemergence, 31 g ai/ha",50
same,"Buckwheat, Wild plant response rating","buckwheat, wild; Postemergence, 125 g ai/ha",65
same,"Buckwheat, Wild plant response rating","buckwheat, wild; Postemergence, 250 g ai/ha",70
same,"Buckwheat, Wild plant response rating","buckwheat, wild; postemergence, 62 g ai/ha",60
same,Windgrass plant response rating,"windgrass [2]; Postemergence, 31 g ai/ha",10
same,Windgrass plant response rating,"windgrass [2]; Postemergence, 125 g ai/ha",35
same,Windgrass plant response rating,"windgrass [2]; Postemergence, 250 g ai/ha",60
same,Windgrass plant response rating,"windgrass [2]; postemergence, 62 g ai/ha",20
same,"Plant response rating, Soybean",soybean; [3],95
same,"Plant response rating, Soybean",soybean; [4],80
same,"Plant response rating, Soybean",soybean; [5],95
same,"Plant response rating, Soybean",soybean; [6],0
same,"Plant response rating, Soybean",soybean; [7],0
same,"Plant response rating, Goosegrass",goosegrass; [3],90
same,"Plant response rating, Goosegrass",goosegrass; [4],90
same,"Plant response rating, Goosegrass",goosegrass; [5],100
same,"Plant response rating, Goosegrass",goosegrass; [6],5
same,"Plant response rating, Goosegrass",goosegrass; [7],40
same,"Plant response rating, Barnyardgrass",barnyardgrass; [3],35
same,"Plant response rating, Barnyardgrass",barnyardgrass; [4],98
same,"Plant response rating, Barnyardgrass",barnyardgrass; [5],100
same,"Plant response rating, Barnyardgrass",barnyardgrass; [6],0
same,"Plant response rating, Barnyardgrass",barnyardgrass; [7],25
same,"Plant response rating, Dayflower, VA","dayflower, VA; [3]",50
same,"Plant response rating, Dayflower, VA","dayflower, VA; [4]",95
same,"Plant response rating, Dayflower, VA","dayflower, VA; [5]",100
same,"Plant response rating, Dayflower, VA","dayflower, VA; [6]",0
same,"Plant response rating, Dayflower, VA","dayflower, VA; [7]",0
